According to patent publication US11612553B2, “Oral care product and methods of use and manufacture thereof” (Colgate-Palmolive Company, priority 2008, dated 2023):

Test system: S. sanguis
Assay: Ammonia production by S. sanguis at pH 4.0
Assay type: cell-based
Settings: mean of 6 trials; 5 millimolar amino acid, pH 4.0, 0.1% sucrose, 37° C., 30 minutes
Procedure: An overnight culture of S. sanguis was grown at 37° C. in trypticase soy broth (Becton Dickinson, Sparks, Md.). The culture was centrifuged at 5,000 rpm for 5 minutes at 1 milliliter at a time into preweighed tubes in order to accumulate approximately 5 milligrams of wet pellet weight. The pellet was then resuspended into 20 millimolar potassium phosphate buffer (JT Baker, Phillipsburg, N.J.), pH 4.0, to simulate a stressed environment for the bacterial cell where ammonia would be produced for survival. The final concentration was 5 milligram per milliliter. To this final concentration, a 5 millimolar final concentration of L-arginine, L-citrulline, or L-ornithine was added along with a 0.1% final concentration of sucrose (VWR, West Chester, Pa.). This mixture was then incubated at 37° C. in a shaking water bath for 30 minutes before ammonia production was determined.
In order to analyze for ammonia, an Ammonia Assay kit was used from Diagnostic Chemicals Limited (Oxford, Conn.). The intended use of this specific kit is for the in vitro quantification of ammonia in plasma, but the procedure was modified in order to determine and quantify the ammonia production in plaque and/or bacteria.

In the case of `N=C(N)NCCC[C@H](N)C(=O)O` [L-Arginine, L-arginine], the “Ammonia, Mean” value is reported as 1.06 ppm.

In the case of `NC(=O)NCCC[C@H](N)C(=O)O` [L-Citrulline, L-citrulline], the “Ammonia, Mean” value is reported as 0.951 ppm.
